The values that follow come from patent US20100075361A1, “METHODS OF GENERATING FLORESCENCE RESONANCE ENERGY TRANSFER (FRET) BETWEEN SEMICONDUCTOR QUANTUM DOTS AND FLUORESCENT DYES/PROTEINS VIA MULTI-PHOTON EXCITATION, ACHIEVING ZERO BACKGROUND OR DIRECT EXCITATION CONTRIBUTIONS TO THE FRET SIGNATURE” (Government of the United States of America the Secretary of …, priority 2008, published 2010).

A value given as a limit tells only on which side of the number the result lay.

Data set [1] in a line: Two-photon action cross-section measurement, fluorescein as standard. The data set is classed as physicochemical. As to conditions: Water, 800 nm. The text has this:
Steady-state composite spectra collected from samples under two-photon excitation were deconvoluted to yield individual photoluminence (PL) contributions using the known spectral profiles of isolated QDs and Cy3 dye emissions (see FIG. 4A, FIG. 4B, FIG. 4C and FIG. 4D).
Table 1 contains data describing two-photon action cross-sections for QDs populations in water and toluene, characterized using fluorescein as a standard in aqueous buffer (φσ2p=36 GM at 800 nm and pH 13), Cy3, fluorescein and wild-type green fluorescent protein (GFP) (from reference 28). Although multi-photon absorption profiles are non-linear optical phenomena, the longer wavelength emitting QD populations show higher two-photon action cross-sections, consistent with the one-photon absorption behavior.

A further data set concerns HEK 293T/17 cells. Description: Two-photon / one-photon fluorescence microscopy of cells incubated with QD-peptide conjugates. The data set is classed as cell-based, human. Particulars: two-photon excitation, 840 nm. The text has this: In the first exemplary embodiment, in regard to quantum dot peptide conjugates, cell penetrating peptide (CPP) was synthesized by Boc-solid phase peptide synthesis with the sequence (His)8-Trp-Gly-Leu-Ala-Aib-Ser-Gly-(Arg)8-amide, where Aib is the artificial residue alpha-amino isobutyric acid. The Cy3-labeled peptide was synthesized with the sequence, Ac-(His)6-Gly-Leu-Aib-[…]NH2, where Ac is an acetyl group at the N-terminus. This peptide was labeled with a maleimide-functionalized Cy3 at the cysteine residue. The polyhistidine sequences at the N-termini of the peptides allowed and/or caused their self-assembly on the QD surface. […]
Exemplary embodiments show a unique advantage of two-photon excitation to probe energy transfer between QDs and conjugated dye acceptors, while investigating the stability of self-assembled QD-peptide conjugates within cells using fluorescence microscopy. […]
Further, in the first exemplary embodiment, in regard to cell imaging, two-photon cell imaging is performed with a BIO-RAD MRC-1024 MP confocal system using ˜10 mW of 840 nm pulsed excitation (˜80 fs, 80 MHz) at the focal plane of a 60×, 0.9 NA water immersion objective microscope. […] DAPI fluorescence cross-talk was subtracted from the QD channel. […]

For Cy3, the Two-photon action cross-section in data set [1] is recorded as less than 1 GM.

Consider “Tf-Cy3: Cy3-labeled transferrin, endosomal marker, mixed with unlabeled CPP-QD, not bound to QDs”, for which the “Cy3 fluorescence / FRET from QDs to Cy3 in cells” value with HEK 293T/17 cells is recorded as “does not show any evidence of Cy3 fluorescence”.
